# Columns and labels:
# Assay type in all cases: biochemical
# [1] = target: T1, human topoisomerase II (hTopo II) (Homo sapiens, UniProt P11388); assay: Human topoisomerase II decatenation assay; conditions: 1 μM
# T1 construct: purchased topoGEN, Port Orange, FL, USA
# Description: Decatenated and linear kDNA (Figure 8, lanes 1 and 2) are used as markers.
# hTopo II decatenation assays were performed in a final volume of […], as reported by Iacopetta et al., using […] of kinetoplast DNA (kDNA) (topoGEN, Port Orange, FL, USA), tested compounds and 3 units of hTopo II (topoGEN, Port Orange, FL, USA). The reaction products were loaded in an agarose gel with EB. At the end, the gel was washed with distilled water and analyzed using a UV transilluminator. The experiment was repeated three times.
# Lane 1 and 2, decatenated and linear kDNA, respectively.
# [2] = target: T2, human topoisomerase I (hTopo I) (Homo sapiens, UniProt P11387); assay: Human topoisomerase I relaxation assay; conditions: 1 μM
# T2 construct: purchased TopoGEN, Port Orange, FL, USA
# T2 sequence (P11387 1-765): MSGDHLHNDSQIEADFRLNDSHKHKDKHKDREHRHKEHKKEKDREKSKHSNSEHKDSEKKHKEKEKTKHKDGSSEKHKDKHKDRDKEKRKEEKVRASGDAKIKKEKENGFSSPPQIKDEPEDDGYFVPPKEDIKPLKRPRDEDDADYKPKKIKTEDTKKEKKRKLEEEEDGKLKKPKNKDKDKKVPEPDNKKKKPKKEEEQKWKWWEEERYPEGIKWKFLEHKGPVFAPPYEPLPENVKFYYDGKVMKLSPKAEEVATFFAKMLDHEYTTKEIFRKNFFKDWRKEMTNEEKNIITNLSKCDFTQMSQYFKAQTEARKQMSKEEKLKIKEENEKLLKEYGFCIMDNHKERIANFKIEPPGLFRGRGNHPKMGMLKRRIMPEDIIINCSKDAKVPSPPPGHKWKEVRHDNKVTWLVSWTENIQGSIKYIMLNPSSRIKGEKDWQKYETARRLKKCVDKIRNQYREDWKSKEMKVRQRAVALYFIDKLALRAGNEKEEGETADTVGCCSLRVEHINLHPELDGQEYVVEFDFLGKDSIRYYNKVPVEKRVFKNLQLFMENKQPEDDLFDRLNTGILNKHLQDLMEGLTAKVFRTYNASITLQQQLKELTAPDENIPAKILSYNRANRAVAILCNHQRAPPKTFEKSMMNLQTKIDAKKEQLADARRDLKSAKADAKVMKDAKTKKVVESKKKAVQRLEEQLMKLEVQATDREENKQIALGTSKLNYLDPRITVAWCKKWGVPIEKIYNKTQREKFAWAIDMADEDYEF
# Description: Topoisomerases are essential enzymes involved in DNA metabolism, because of their ability to cause temporary DNA strand breakage, and tightly involved, if overexpressed, in cancer development.
# hTopo I relaxation assays have been performed in a final volume of […], as reported by Iacopetta et al., incubating […] of supercoiled plasmid pHOT1 in Tris-EDTA (TE) buffer (TopoGEN, Port Orange, FL, USA) with tested compounds and recombinant hTopo I (2 units) (TopoGEN, Port Orange, FL, USA) for 1h at 37 °C. The obtained solution has been loaded in a 1% agarose gel containing 1× Tris-acetate-EDTA (TAE) buffer without ethidium bromide (EB). Agarose gel has been stained using 1× TAE buffer with EB ([…]) for 30 min and after washed with distilled water for 15 min. At the end, it has been visualized by using a ultraviolet (UV) transilluminator. The experiment was performed in triplicate.
# Figure 7 hTopoI assay.
# [3] = tested on: tubulin; assay: In vitro tubulin-polymerization assay (turbidity at 350 nm); conditions: 10 µM
# Description: Tubulin-polymerization inihibition was measured using in vitro Tubulin-Polymerization Assay Kit purchased fromEMD Millipore Corporation. Polymerization reactions occur in 70 µL final volumes, of which 60 µL is the 60 µM tubulin in 1 × PB-GTP and 10 µL is the test substance dissolved in 1 × PB-GTP. […] These reactives were combined in 96-well plate on ice. After the plate was transferred into the spectrophotometer pre-warmed at 37 °C and the turbidity variation was measured every 30 s at 350 nm for 90 min. The plate was shaked for 10 s before each measurement. Turbidity (absorbance) readings were used to calculate the extent of polymerization [% inhibition = (1−A350 sample/A350 control) × 100].
# Figure 4 Tubulin-polymerization assay. […] Two positive control molecules, Paclitaxel and Vinblastine, were used as tubulin-stabilizing and tubulin-destabilizing agents, respectively. DMSO was used as a negative control. Assembly of tubulin into microtubules was determined by measuring the turbidity at 350 nm for 3600 s at 37 °C. All the compounds were used at a concentration of 10 μM.
# T1 sequence (P11388 whole entry): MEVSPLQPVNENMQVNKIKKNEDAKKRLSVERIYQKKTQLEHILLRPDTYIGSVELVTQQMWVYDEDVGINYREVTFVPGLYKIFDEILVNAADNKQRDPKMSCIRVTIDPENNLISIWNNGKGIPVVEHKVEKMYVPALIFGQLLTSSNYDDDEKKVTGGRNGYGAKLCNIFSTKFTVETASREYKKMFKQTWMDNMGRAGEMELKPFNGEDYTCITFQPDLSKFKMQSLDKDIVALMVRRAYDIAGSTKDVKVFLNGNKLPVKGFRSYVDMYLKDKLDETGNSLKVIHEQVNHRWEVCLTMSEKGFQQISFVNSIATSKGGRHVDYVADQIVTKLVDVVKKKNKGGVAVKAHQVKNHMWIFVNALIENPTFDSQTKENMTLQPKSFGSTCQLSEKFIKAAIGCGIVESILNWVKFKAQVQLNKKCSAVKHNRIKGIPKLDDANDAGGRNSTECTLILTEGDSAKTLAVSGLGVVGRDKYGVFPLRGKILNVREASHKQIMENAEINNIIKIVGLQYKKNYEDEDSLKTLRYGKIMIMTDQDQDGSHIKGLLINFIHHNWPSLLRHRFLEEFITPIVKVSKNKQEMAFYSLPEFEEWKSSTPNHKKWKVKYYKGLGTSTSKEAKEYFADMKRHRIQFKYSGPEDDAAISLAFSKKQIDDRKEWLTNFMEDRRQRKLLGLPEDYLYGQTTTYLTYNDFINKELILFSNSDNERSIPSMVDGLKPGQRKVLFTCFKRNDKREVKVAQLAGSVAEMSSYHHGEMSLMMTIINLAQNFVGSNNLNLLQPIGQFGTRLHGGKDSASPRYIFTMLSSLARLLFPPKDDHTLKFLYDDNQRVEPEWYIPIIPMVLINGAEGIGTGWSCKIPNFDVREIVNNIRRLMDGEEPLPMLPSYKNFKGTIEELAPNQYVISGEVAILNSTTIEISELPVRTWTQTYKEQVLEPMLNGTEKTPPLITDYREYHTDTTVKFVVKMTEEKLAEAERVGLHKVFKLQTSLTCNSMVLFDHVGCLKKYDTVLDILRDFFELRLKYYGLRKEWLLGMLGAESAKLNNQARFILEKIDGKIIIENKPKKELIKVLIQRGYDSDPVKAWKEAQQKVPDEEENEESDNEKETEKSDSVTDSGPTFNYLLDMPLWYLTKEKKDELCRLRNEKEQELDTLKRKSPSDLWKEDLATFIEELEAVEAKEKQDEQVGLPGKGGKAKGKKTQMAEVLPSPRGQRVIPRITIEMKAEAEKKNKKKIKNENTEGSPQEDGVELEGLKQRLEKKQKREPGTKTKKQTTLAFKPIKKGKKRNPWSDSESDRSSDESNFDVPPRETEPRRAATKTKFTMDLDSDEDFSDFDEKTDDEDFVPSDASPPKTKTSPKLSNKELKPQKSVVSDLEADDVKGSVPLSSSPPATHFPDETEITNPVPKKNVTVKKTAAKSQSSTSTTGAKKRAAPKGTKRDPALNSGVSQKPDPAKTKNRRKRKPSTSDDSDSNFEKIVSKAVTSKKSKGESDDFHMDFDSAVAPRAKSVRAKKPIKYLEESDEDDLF
structure (smiles),measurement,setting,value
"C[n+]1c(Cl)c(Cl)n(CC(O)c2ccccc2)[c]1[Au-][c]1n(CC(O)c2ccccc2)c(Cl)c(Cl)[n+]1C.[Cl][Au-][Cl] (racemic) [AuL7, bis-[4,5-dichloro-(N-methyl-N’(2-hydroxy-2-phenyl)ethyl-imidazole-2-ylidene)gold(I)]^+[dichloro-gold]^−]",inhibition of hTopo II decatenation activity,[1],total blockade of hTopoII activity
same,inhibition of hTopo I supercoil relaxing activity,[2],totally inhibition
same,effect on tubulin-polymerization reaction,[3],tubulin-polymerization inhibitor
same,final optical density value at 350 nm (OD350),"[3]; 37 °C, vehicle (DMSO) about 0.43",about 0.25
